The test system of assay [1] is ISF Aβ. Kind of assay: ISF Aβ levels by hippocampal microdialysis in 5-HT2A−/− mice. The following applies: 5-HT2A KO (5-HT2A−/−) mice; Example 3; pimavanserin 1 mg/kg, MDL 100,907 3 mg/kg. Type of assay: in vivo. As for the experimental part:
Following drug administration, ISF Aβ was measured every 3 hours for an additional 24 hours.

The test system of assay [2] is ISF Aβ. Kind of assay: ISF Aβ levels by hippocampal microdialysis and sandwich ELISA in APP/PS1+/− transgenic mice. Type of assay: in vivo. As to conditions: for ISF levels of Aβ: Example 1. As for the experimental part:
Wild-type or APP/PS1+/− transgenic mice at the indicated ages (equal male and female) were implanted with unilateral hippocampal microdialysis probes at stereotaxic coordinates (bregma—3.1 mm, 2.5m lateral to midline, and 1.2 mm below dura at a 12° angle) as described (Cirrito et al. 2003; 2011). These probes contain a 38 kDa MWCO semi-permeable membrane and sample Aβ specifically from within the brain ISF. ISF Aβ was measured every 60-90 minutes for up to 72 hours after probe was inserted into the brain. Throughout each study mice was housed in RaTurn caging systems to provide freedom of movement and ad lib food and water while attached the microdialysis equipment. After probe insertion, animals were allowed to recover for 6 hours in order for the brain to recover and the blood-brain barrier to reform. Microdialysis probe insertion was similar to the procedure described by Cirrito et al. 2003 and 2011. From hours 6-60 after microdialysis probe insertion, ISF Aβ levels were relatively constant which provides the ideal experimental window. After recovery, each mouse had baseline ISF Aβ levels sampled every hour over a 6 hour period followed by administration of either vehicle (saline, pH 6.0 or M DL 100,907. Following drug administration, ISF Aβ was measured every 60-90 minutes for an additional 48 hours. At the end of each experiment ISF Aβ40 was immediately measured by sandwich ELISA. Animals were sacrificed, brains removed, then processed for histological verification of probe placement. FIG. 1A-FIG. 1D discloses the results of Example 1 (MDL 100,907 (M100), a selective 5-HT2A Serotonin Receptor Inverse Agonist on ISF levels of Aβ40 and Aβ42 in wild-type, and in young and aged APP/PS1+/− Transgenic Mice). […] APP/PS1+/− transgenic mice at the indicated ages (equal male and female) were implanted with unilateral hippocampal microdialysis probes at stereotaxic coordinates (bregma—3.1 mm, 2.5m lateral to midline, and 1.2 mm below dura at a 12° angle) as described (Cirrito et al. 2003 and 2011) and ISF Aβ levels measured as described in Example 1. […]
A general note: ELISA stands for enzyme-linked immunosorbent assay.

The subject of assay [3] is ISF Aβ. Kind of assay: ISF Aβ levels by hippocampal microdialysis in wild-type mice. It is filed as in vivo. As to conditions: 2.5 to 3 months, Example 3, pimavanserin 1 mg/kg, MDL 100,907 3 mg/kg. As for the experimental part: Wild-type or APP/PS1+/− transgenic mice at the indicated ages (equal male and female) were implanted with unilateral hippocampal microdialysis probes at stereotaxic coordinates (bregma—3.1 mm, 2.5m lateral to midline, and 1.2 mm below dura at a 12° angle) as described (Cirrito et al. 2003; 2011). These probes contain a 38 kDa MWCO semi-permeable membrane and sample Aβ specifically from within the brain ISF. ISF Aβ was measured every 60-90 minutes for up to 72 hours after probe was inserted into the brain. Throughout each study mice was housed in RaTurn caging systems to provide freedom of movement and ad lib food and water while attached the microdialysis equipment. […] After recovery, each mouse had baseline ISF Aβ levels sampled every hour over a 6 hour period followed by administration of either vehicle (saline, pH 6.0 or M DL 100,907. Following drug administration, ISF Aβ was measured every 60-90 minutes for an additional 48 hours. At the end of each experiment ISF Aβ40 was immediately measured by sandwich ELISA. Animals were sacrificed, brains removed, then processed for histological verification of probe placement. FIG. 1A-FIG. 1D discloses the results of Example 1 (MDL 100,907 (M100), a selective 5-HT2A Serotonin Receptor Inverse Agonist on ISF levels of Aβ40 and Aβ42 in wild-type, and in young and aged APP/PS1+/− Transgenic Mice). […]

The subject of assay [4] is beta amyloid. As to conditions: cited from earlier work; for beta amyloid levels and Plaque Burden: Mouse Model of AD.
Assay [5] has as its system amyloid plaque. Kind of assay: Histological staining of hippocampus for amyloid plaque load after chronic treatment of APP/PS1+/− mice. Type of assay: in vivo. An excerpt: (§1) Incisions were closed by suture or staple to insure the pumps remained in place. Every 5 weeks pumps were removed and new full pumps implanted in the same manner at a different location on the back to provide continuous drug delivery over the 4 month period. In parallel, age and gender matched cohorts of APP/PS1+/− transgenic mice were sacrificed so that amyloid plaque and Aβ levels at the start of treatment could be compared to mice at the end of treatment. […] At the end of the 4 month treatment period, mice were sacrificed, brains removed, and divided into hemispheres. One hemisphere per mouse was processed for guanidine extraction and biochemical analysis by ELISA of Aβ40 and Aβ42 levels in hippocampus as described in Cirrito et al., 2011, with the 5 Molar Guanidine extracts representing the insoluble fractions of Aβ40 and Aβ42. The insoluble fraction is believed to represent the harmful amyloid plaque deposits that are characteristic of Alzheimer's disease. The other hemisphere was used to perform histological staining and analysis of amyloid plaque growth. Start indicates the age and gender matched cohorts sacrificed at the start of the study. Guan indicates 5 Molar Gaunidine. FIG. 4A) 5M Gaunidine fraction of Aβ40 and Aβ42, all genders. FIG. 4B) 5M Guanidine fraction, male and female. […]

The test system of assay [6] is Aβ40 and Aβ42. Kind of assay: Aβ40 and Aβ42 in 5M guanidine hippocampal extracts (ELISA) after chronic treatment of APP/PS1+/− mice. Type of assay: in vivo. An excerpt: Incisions were closed by suture or staple to insure the pumps remained in place. Every 5 weeks pumps were removed and new full pumps implanted in the same manner at a different location on the back to provide continuous drug delivery over the 4 month period. In parallel, age and gender matched cohorts of APP/PS1+/− transgenic mice were sacrificed so that amyloid plaque and Aβ levels at the start of treatment could be compared to mice at the end of treatment. […] At the end of the 4 month treatment period, mice were sacrificed, brains removed, and divided into hemispheres. One hemisphere per mouse was processed for guanidine extraction and biochemical analysis by ELISA of Aβ40 and Aβ42 levels in hippocampus as described in Cirrito et al., 2011, with the 5 Molar Guanidine extracts representing the insoluble fractions of Aβ40 and Aβ42. The insoluble fraction is believed to represent the harmful amyloid plaque deposits that are characteristic of Alzheimer's disease. The other hemisphere was used to perform histological staining and analysis of amyloid plaque growth. Start indicates the age and gender matched cohorts sacrificed at the start of the study. Guan indicates 5 Molar Gaunidine. FIG. 4A) 5M Gaunidine fraction of Aβ40 and Aβ42, all genders. FIG. 4B) 5M Guanidine fraction, male and female.
Male and Female APP/PS1+/− transgenic mice, age 6 months, were implanted with Alzet osmotic minipumps and treated as described in Example 4. At the end of the 4 month treatment period, mice were sacrificed, brains removed, and divided into hemispheres. In parallel, age and gender matched cohorts of APP/PS1+/− transgenic mice were sacrificed so that amyloid plaque and Aβ levels at the start of treatment could be compared to mice at the end of treatment. Start indicates the age and gender matched cohorts sacrificed at the start of the study. Guan indicates 5 Molar Gaunidine. FIG. 6A) 5M Gaunidine fraction of Aβ40 and Aβ42, all genders. FIG. 6B) F) 5M Guanidine fraction of Aβ40 and Aβ42, male and female. […] Example 7.

Assay [7] relates to Aβ40 and Aβ42. Kind of assay: Aβ40 and Aβ42 in CSF (ELISA) after chronic treatment of APP/PS1+/− mice. It is filed as in vivo. As to conditions: 6 month old APP/PS1 mice treated for 4 months; Example 8.
Description: as §1, with “disease.” for “disease. The other hemisphere was used to perform histological staining and analysis of amyloid plaque growth. Start indicates the age and gender matched cohorts sacrificed at the start of the study. Guan indicates 5 Molar Gaunidine. FIG. 4A) 5M Gaunidine fraction of Aβ40 and Aβ42, all genders. FIG. 4B) 5M Guanidine fraction, male and female.”
Male and Female APP/PS1+/− transgenic mice, age 6 months, were implanted with Alzet osmotic minipumps and treated as described in Example 4. At the end of the 4 month treatment period, mice were sacrificed, CSF removed using the method of DeMattos et al., 2002 (see page 230, Materials and Methods), and Aβ40 and Aβ42 levels analyzed by ELISA. […]

On to `COc1cccc([C@H](O)C2CCN(CCc3ccc(F)cc3)CC2)c1OC` [M100,907, (R)-(+)-α-(2,3-Dimethoxyphenyl)-1-[2-(4-fluorophenyl)ethyl]-4-piperinemethanol], for which the “Aβ-lowering effect on ISF Aβ” value in assay [1] is given as “abolished”. The “ISF levels of Aβ” value in assay [2] (old (12 month old, fully formed amyloid plaques) APP/PS1 mice) was “robustly lowered levels of Aβ in a dose dependent manner”; in assay [2] (young (3 month old, pre-plaque) APP/PS1 mice), “robustly lowered levels of Aβ in a dose dependent manner”. Moreover, the “Brain ISF Aβ levels” value in assay [3] was “Normalize Brain ISF Aβ Levels”.

For `CN(C)CC(c1ccc(O)cc1)C1(O)CCCCC1` (centres unmarked) [desvenlafaxine], the “beta amyloid levels and Plaque Burden” value in assay [4] is “lower beta amyloid levels and Plaque Burden”.

In the case of `CNCCC(Oc1ccc(C(F)(F)F)cc1)c1ccccc1` (centres unmarked) [fluoxetine], the “beta amyloid levels and Plaque Burden” value in assay [4] was “lower beta amyloid levels and Plaque Burden”.

Consider `CC(C)COc1ccc(CNC(=O)N(Cc2ccc(F)cc2)C2CCN(C)CC2)cc1.O=C(O)C(O)C(O)C(=O)O` [pimavanserin, N-(1-methylpiperidin-4-yl)-N-(4-fluorophenylmethyl)-N′-(4-(2-methylpropyloxy)phenylmethyl)carbamide], for which the “amyloid plaque in hippocampus (histological staining), compared to vehicle treated mice” value in assay [5] (treatment from age 4.5 months for 4 months, Example 5) is listed as “highly significant decreases of amyloid plaque”; in assay [5] (treatment from age 6 months for 4 months, Example 7), “highly significant decreases of amyloid plaque”. Moreover, the “ISF Aβ” value in assay [2] (APP/PS1 mice, single bolus doses or continuous infusion, Example 2) is on record as “robustly lowered ISF Aβ in APP/PS1 mice in a dose dependent manner”. Moreover, the “Brain ISF Aβ levels” value in assay [3] was “Normalize Brain ISF Aβ Levels”. The “Aβ40 (guanidine fraction) in male mice, treated group (age 10 months) compared to start group (age 6 months)” value in assay [6] (male mice, Example 6B) is on record as “reduction in Aβ40”. The “levels of the guanidine fraction of Aβ40 and Aβ42 in hippocampus, compared to vehicle treated mice” value in assay [6] (treatment from age 4.5 months for 4 months, osmotic minipump 3 mg/kg/day, Example 4) is “highly significant reduction”; in assay [6] (treatment from age 6 months for 4 months, osmotic minipump, Example 6), “highly significant reduction”. The “levels of Aβ40 and Aβ42 (guanidine fraction), treated group at end compared to 'Start' group” value was “not a significant difference” in assay [6] (treatment from age 4.5 months for 4 months, Example 4) and “not a significant difference” in assay [6] (treatment from age 6 months for 4 months, Example 6). Also, the “Aβ in CSF” value in assay [7] is recorded as “significantly lowered Aβ”.

On to `NCCc1c[nH]c2ccc(O)cc12` [serotonin], for which, in assay [4] (direct infusion into the hippocampus), the “ISF Aβ40 and Aβ42 levels” value is “reduced ISF Aβ40 and Aβ42 levels”.

The values are drawn from patent publication US20220000852A1, “5-HT2A SEROTONIN RECEPTOR INVERSE AGONISTS OR ANTAGONISTS FOR USE IN REDUCING AMYLOID-BETA PEPTIDES AND ACCUMULATION OF AMYLOID PLAQUES” (ACADIA Pharmaceuticals Inc., priority 2016, published 2022).
